Assay results: PubChem BioAssay (NCI)
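Grown in 96-well plates, cells were treated for 48 hours with each compound at five concentrations. Insufficient inhibition: endpoint recorded as highest concentration tested. GI50 marks 50% less growth. TGI: total growth inhibition.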

Legend:
Test in all cases: NCI tumour cell line growth inhibition, 48 h
[1] = system: NCI-H226 lung
[2] = system: 786-0 renal
[3] = system: RXF 393 renal
[4] = system: SW-620 colon
[5] = system: RPMI-8226 leukemia
[6] = system: UACC-257 melanoma
[7] = system: PC-3 prostate
[8] = system: OVCAR-5 ovarian
[9] = system: OVCAR-8 ovarian
[10] = system: NCI/ADR-RES ovarian

Q: How did the GI50 [1] turn out when `COc1ccc(-c2nn(-c3cccc(Cl)c3)cc2-c2nc(N)[nH]c(=O)c2C#N)cc1` was run?
A: 6.23 µM

Q: And the TGI [1]?
A: 70.3 µM

Q: What about the GI50 [2] of the same molecule?
A: 4.65 µM

Q: What about the TGI [2] of the same molecule?
A: 33.5 µM

Q: And the GI50 [3]?
A: 4.51 µM

Q: And the TGI [3]?
A: 22.4 µM

Q: What about the GI50 [4] of the same molecule?
A: 4.38 µM

Q: And the TGI [4]?
A: 34.2 µM

Q: What about the GI50 [5] of the same molecule?
A: 5.63 µM

Q: And the TGI [5]?
A: 55.5 µM

Q: And the GI50 [6]?
A: 5.69 µM

Q: And the TGI [6]?
A: 47.3 µM

Q: What about the GI50 [7] of the same molecule?
A: 6.3 µM

Q: And the TGI [7]?
A: > 100 µM

Q: And the GI50 [8]?
A: 14.6 µM

Q: And the TGI [8]?
A: 51.4 µM

Q: And the GI50 [9]?
A: 10.1 µM

Q: What about the TGI [9] of the same molecule?
A: 60.3 µM

Q: What about the GI50 [10] of the same molecule?
A: 3.33 µM

Q: And the TGI [10]?
A: 15.9 µM

Q: `CNC(C)[C@H]1CCC2C3CC=C4C(=O)[C@@H](NC(=O)C=C(C)C)CC[C@]4(C)C3CC[C@@]21C` (stereo not given in full) was tested. Which GI50 [1] did it give?
A: 2.53 µM

Q: What about the TGI [1] of the same molecule?
A: 14.1 µM

Q: And the GI50 [2]?
A: 1.56 µM

Q: And the TGI [2]?
A: 3.16 µM

Q: What about the GI50 [3] of the same molecule?
A: 1.45 µM

Q: And the TGI [3]?
A: 3.22 µM

Q: What about the GI50 [4] of the same molecule?
A: 1.7 µM

Q: What about the TGI [4] of the same molecule?
A: 4.03 µM

Q: What about the GI50 [5] of the same molecule?
A: 1.13 µM

Q: And the TGI [5]?
A: 5.27 µM

Q: And the GI50 [6]?
A: 2.33 µM

Q: What about the TGI [6] of the same molecule?
A: 5.54 µM

Q: And the GI50 [7]?
A: 1.9 µM

Q: What about the TGI [7] of the same molecule?
A: 11.5 µM

Q: What about the GI50 [8] of the same molecule?
A: 2.53 µM

Q: And the TGI [8]?
A: 10.9 µM

Q: What about the GI50 [9] of the same molecule?
A: 3.91 µM

Q: And the TGI [9]?
A: 20.2 µM

Q: What about the GI50 [10] of the same molecule?
A: 3.44 µM

Q: What about the TGI [10] of the same molecule?
A: 15 µM

Q: For `C=C(C)[C@@H]1CC[C@]2(C)[C@H](CC[C@@H]3[C@@H]([C@@](C)(O)CCC=C(C)C)CC[C@]32C)[C@@]1(C)CCC(=O)O`, which GI50 [1] is on record?
A: 18.1 µM

Q: What about the TGI [1] of the same molecule?
A: 37.3 µM

Q: What about the GI50 [2] of the same molecule?
A: 18.7 µM

Q: And the TGI [2]?
A: 36.7 µM

Q: And the GI50 [3]?
A: 14.3 µM

Q: What about the TGI [3] of the same molecule?
A: 28.6 µM

Q: And the GI50 [4]?
A: 28.5 µM

Q: What about the TGI [4] of the same molecule?
A: > 100 µM

Q: What about the GI50 [5] of the same molecule?
A: 12.2 µM

Q: And the TGI [5]?
A: 38.2 µM

Q: And the GI50 [6]?
A: 23.8 µM

Q: What about the TGI [6] of the same molecule?
A: 96.4 µM

Q: And the GI50 [7]?
A: 11.3 µM

Q: What about the TGI [7] of the same molecule?
A: 27.2 µM

Q: What about the GI50 [8] of the same molecule?
A: 17.6 µM

Q: What about the TGI [8] of the same molecule?
A: 34.2 µM

Q: And the GI50 [9]?
A: 19 µM

Q: What about the TGI [9] of the same molecule?
A: 43 µM

Q: What about the GI50 [10] of the same molecule?
A: 20.2 µM

Q: What about the TGI [10] of the same molecule?
A: 41.3 µM

Q: Which TGI [1] does the source give for `Cc1ccc2occ/c(=N\Nc3ccccc3)c2c1` here?
A: > 100 µM

Q: What about the TGI [2] of the same molecule?
A: > 100 µM

Q: What about the TGI [3] of the same molecule?
A: 58.9 µM

Q: And the TGI [4]?
A: > 100 µM

Q: What about the TGI [5] of the same molecule?
A: > 100 µM

Q: And the TGI [6]?
A: > 100 µM

Q: And the TGI [7]?
A: > 100 µM

Q: And the TGI [8]?
A: > 100 µM

Q: What about the TGI [9] of the same molecule?
A: > 100 µM

Q: And the TGI [10]?
A: > 100 µM
